Measured values: patent US6815664B2, “Method for separation of particles” (Genoptix, Inc., priority 2001, dated 2004)

What was measured:
[1] = test system: U937 cells; assay: Escape velocity of treated and untreated leukemia cells; format: cell-based; details: PMA 5 ug/mL, 37° C., treated for 6 hours
Text: Separation By Refractive Index—Polystyrene, polymethylmethacrylate and silica particles of similar size (˜5 micrometer diameter, Bangs Labs) and refractive indexes of 1.59, 1.49 and 1.37, respectively, were sorted by moving optical gradient fields. Observed escape velocities for polystyrene, PMMA and silica were 44, 47 and 32 micrometers/second, respectively. Briefly, a particle is aligned in the fringe and the fringes are moved at increasing speed until the particle slips. […] It will be appreciated by those skilled in the art that the absolute value of the escape velocity will differ depending upon system conditions, e.g., laser power. The numerical results provided herein are meant to provide measured data for the system actually used, and are not to be considered a limitation on the values which might exist in a different system.
PMA was dissolved in ethanol at a concentration of 5 mg/mL. 3 mls of U937 cells grown in RPMI 1640 media with supplements were removed from the culture flask and 1 ml was placed into each of three eppendorf tubes. Cells from the first tube were pelleted for 4 minutes at 10,000 rpm and resuspended in 250 uL PBS/1% BSA buffer for escape velocity measurements. PMA was added to the remaining two tubes of U937 cells to a final concentration of 5 ug/mL. These tubes were vortexed and placed in a 37° C. water bath for either one hour or six hours. […]

[2] = test system: K562 Cells; assay: Escape velocity of cells in a moving optical gradient field (1064 system, CYTOP coated coverslips); format: cell-based; details: K562 cells (chronic myelogenous leukemia, lymphoblast), 26 Hr. Taxol treatment; untreated K562 10.0 +/− 0.7
Text: Certain of the data reported herein were generated with the following setup. Optical gradient fields were generated using a Michelson interferometer and either a 150 mW, 812 nm laser (812 system) or a 2.5 W, 1064 nm laser (1064 system). The 812 system used a 100× (1.25 NA) oil immersion lens to focus the fringe pattern and to visualize the sample. The 1064 system used a 20× objective to focus the fringes and a 60× objective to visualize the sample. In general the sample cell was a coated microscope slide and/or coverslip that was sealed with Vaseline. Coverslip spacers controlled the height of the cell at approximately 150 micrometers
Separation By Refractive Index—Polystyrene, polymethylmethacrylate and silica particles of similar size (˜5 micrometer diameter, Bangs Labs) and refractive indexes of 1.59, 1.49 and 1.37, respectively, were sorted by moving optical gradient fields. Observed escape velocities for polystyrene, PMMA and silica were 44, 47 and 32 micrometers/second, respectively. […] The numerical results provided herein are meant to provide measured data for the system actually used, and are not to be considered a limitation on the values which might exist in a different system.
Escape velocities were measured using a gradient field generated by the 1064 system on CYTOP coated coverslips.

| SMILES | escape velocity as compared to the untreated cells [1] | Escape Velocity [2] |
| --- | --- | --- |
| CCCCCCCCCCCCCC(=O)O[C@@H]1[C@@H](C)[C@@]2(O)[C@@H](C=C(CO)C[C@]3(O)C(=O)C(C)=C[C@@H]23)[C@@H]2C(C)(C)[C@]12OC(C)=O [PMA] | significantly higher escape velocity | – |
| CC(=O)O[C@H]1C(=O)[C@@]2(C)[C@H]([C@H](OC(=O)c3ccccc3)[C@]3(O)C[C@H](OC(=O)[C@H](O)[C@@H](NC(=O)c4ccccc4)c4ccccc4)C(C)=C1C3(C)C)[C@]1(OC(C)=O)CO[C@@H]1C[C@@H]2O [Taxol] | – | 8.2 +/− 0.4 um/sec. |
